The text below walks through data of publication PMC6009943, “One-pot three-component synthesis of novel spirooxindoles with potential cytotoxic activity against triple-negative breast cancer MDA-MB-231 cells” (Journal of Enzyme Inhibition and Medicinal Chemistry, 2017).

In one data set the test system is caspase-3. Kind of data set: Active caspase-3 level in MDA-MB-231 cells (ELISA). Format: cell-based. The note with it: MDA-MB-231 cells treated with compound at its IC50 concentration. Here is the method: (§1) The levels of the apoptotic markers (Bax, caspase-3) as well as the anti-apoptotic marker (Bcl-2) were assessed using ELISA colorimetric kits per the manufacturer’s protocol and referring to reported instructions[21]^,[22].
Caspases, a family of cysteineaspartic proteases, are the crucial apoptosis mediators that provide essential links in cell regulatory networks controlling cell death. Caspase-3 is the key executioner caspase which modifies proteins ultimately responsible for apoptosis.

The target in another data set is T1, EGFR (Homo sapiens, UniProt P00533).
T1 construct: purchased BPS Biosciences 40321
T1 sequence (P00533 25-1210): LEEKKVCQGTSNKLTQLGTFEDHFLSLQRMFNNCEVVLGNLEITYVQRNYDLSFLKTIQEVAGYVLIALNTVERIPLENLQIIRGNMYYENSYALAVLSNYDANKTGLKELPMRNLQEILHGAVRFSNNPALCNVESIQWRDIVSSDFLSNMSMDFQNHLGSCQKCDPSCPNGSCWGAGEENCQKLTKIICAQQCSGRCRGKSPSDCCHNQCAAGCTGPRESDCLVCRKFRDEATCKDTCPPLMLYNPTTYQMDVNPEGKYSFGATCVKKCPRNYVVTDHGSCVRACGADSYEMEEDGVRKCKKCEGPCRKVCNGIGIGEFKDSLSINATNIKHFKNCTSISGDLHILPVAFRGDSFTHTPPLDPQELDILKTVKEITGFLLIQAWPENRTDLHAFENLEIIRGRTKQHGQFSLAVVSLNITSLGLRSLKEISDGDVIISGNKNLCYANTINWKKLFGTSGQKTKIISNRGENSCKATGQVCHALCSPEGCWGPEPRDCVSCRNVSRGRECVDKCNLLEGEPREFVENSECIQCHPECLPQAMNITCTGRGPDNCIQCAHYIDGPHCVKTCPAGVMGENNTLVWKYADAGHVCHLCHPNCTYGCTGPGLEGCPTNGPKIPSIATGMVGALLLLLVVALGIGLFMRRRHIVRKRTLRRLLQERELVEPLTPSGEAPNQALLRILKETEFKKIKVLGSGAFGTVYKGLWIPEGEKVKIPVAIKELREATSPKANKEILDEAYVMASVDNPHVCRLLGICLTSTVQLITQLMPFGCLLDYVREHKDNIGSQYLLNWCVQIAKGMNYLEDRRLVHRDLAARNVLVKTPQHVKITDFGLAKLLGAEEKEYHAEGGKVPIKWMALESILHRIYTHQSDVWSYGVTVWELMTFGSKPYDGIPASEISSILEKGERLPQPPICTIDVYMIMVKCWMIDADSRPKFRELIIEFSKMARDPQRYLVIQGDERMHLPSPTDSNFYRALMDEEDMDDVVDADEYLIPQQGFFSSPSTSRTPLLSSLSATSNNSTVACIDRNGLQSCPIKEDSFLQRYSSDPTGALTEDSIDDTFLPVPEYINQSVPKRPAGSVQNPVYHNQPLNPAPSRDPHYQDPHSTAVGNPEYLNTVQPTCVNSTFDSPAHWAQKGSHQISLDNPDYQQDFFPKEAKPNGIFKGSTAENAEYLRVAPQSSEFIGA
Kind of data set: EGFR kinase ELISA assay. Format: biochemical. Particulars: colorimetric ELISA, mean ± SD of three separate experiments. Here is the method: Percent inhibition was calculated by the comparison of compounds treated to control incubations.
Erlotinib, a clinically used EGFR inhibitor, was taken as the reference drug.

Data set [1] has as its system MDA-MB-231 cells. Put plainly: Annexin V-FITC apoptosis assay. The note with it: MDA-MB-231, 24 h. Format: cell-based. Here is the method:
Phosphatidylserine externalization was measured using Annexin V-FITC/PI apoptosis detection kit (BD Biosciences, San Jose, CA) according to the manufacturer's instructions, as reported earlier. MDA-MB-231cells were treated with 6e at defined concentrations for 24 h.
Externalization of the phospholipid phosphatidylserine at the cell membrane is a one of the well-recognized hallmarks of cells going into apoptosis[17]^,[29].

For a further data set, the system named is Bax. Put plainly: Bax level in MDA-MB-231 cells (ELISA). Particulars: MDA-MB-231 cells treated with compound at its IC50 concentration. Format: cell-based. As for the experimental part:
as §1
(§2) Bcl-2 family comprises a group of crucial regulatory factors in apoptosis that finely tune the apoptotic switch on/off mechanism. Based on their functional and structural criteria, the members are divided into two major classes; group I proteins that are anti-apoptotic and group II proteins that are apoptotic. Group I anti-apoptotic proteins exert their function by inhibiting group II apoptotic proteins through simply binding to them. Group I proteins bind selectively to the active conformations of group II proteins to prevent them from being inserted into the mitochondria and thus cease the release of pro-apoptotic factors such as cytochrome c, ultimately aborting apoptosis. Thus, the inhibition of group I proteins and/or the activation of group II proteins can successfully induce apoptosis.

In another data set the test system is Bcl-2. Kind of data set: Bcl-2 level in MDA-MB-231 cells (ELISA). Particulars: MDA-MB-231 cells treated with compound at its IC50 concentration. Format: cell-based. Here is the method:
as §1, §2

Data set [2] relates to MDA-MB-231 cells. Kind of data set: In vitro anti-proliferative activity assay (MTT). Format: cell-based. Particulars: Homo sapiens, 48 h incubation. As for the experimental part: Cells lines were maintained as monolayers in Dulbecco’s Modified Eagle’s Medium (DMEM) supplemented with 10% FBS, 2 mM L-glutamine, 100 U/ml penicillin and 100 µg/ml streptomycin sulfate. Cells were sub-cultured with trypsine/EDTA solution, counted with haemocytometer and plated onto 96-well plates (5000 cells/well) and left overnight to form a semi-confluent monolayer. […] DMSO (100 µl/well) was added to dissolve the formazan crystals with shaking for 10 min after which the absorbance was read at 590 nm against no cell blanks on a FLuo Star Optima microplate reader (BMG Technologies, Germany). Cell proliferation was calculated comparing the OD values of the DMSO control wells and those of the samples represented as % proliferation to the control.
The in vitro anti-proliferative activity of the newly synthesized spirooxindoles 6a–p was examined against TNBC MDA-MB-231 cells. This assay was performed utilizing the 3–(4,5-dimethylthiazol-2-yl)-2,5-diphenyltetrazolium bromide (MTT) colorimetric assay as described by Mosmann[18]. Adriamycin was included in this assay as a reference drug.

The test system of another data set is WI-38 cells. Kind of data set: In vitro cytotoxic activity, WI-38 cells (MTT). Format: cell-based, human. The note with it: Homo sapiens, WI-38, read-out: IC50 (µM) WI-38. Here is the method:
WI-38 cells ([…]), were obtained from American Type Culture Collection. The cells were propagated in DMEM supplemented with 10% heat-inactivated FBS (Hyclone), 10 μg/ml of insulin (Sigma), and 1% penicillin-streptomycin. All of the other chemicals and reagents were from Sigma, or Invitrogen. Cytotoxicity was determined using MTT assay following a reported procedure.

The test system of data set [3] is MDA-MB-231 cells. Put plainly: Cell cycle analysis (DNA flow cytometry).
Procedure: Then cells were washed twice with ice-cold phosphate buffered saline (PBS). Subsequently, the treated cells were collected by centrifugation, fixed in ice-cold 70% (v/v) ethanol, washed with PBS, re-suspended with 0.1 mg/mL RNase, stained with 40 mg/mL PI, and analyzed by flow cytometry using FACS Calibur (Becton Dickinson, BD, USA). The cell cycle distributions were calculated using CellQuest software (Becton Dickinson).
The subject of a further data set is tsFT210 cells. More on the design: method as in ref 7 = [7]; 7 Cui C-B , Kakeya H , Osada H. Novel mammalian cell cycle inhibitors, spirotryprostatins A and B, produced by Aspergillus fumigatus , which inhibit mammalian cell cycle at G2/M phase . Tetrahedron 19. The note with it: read-out: IC50, inhibition of cell cycle progression at G2/M phase; cited from earlier work.

Another data set relates to MCF-7. Further details: method as in PMID 24747063. Particulars: ordinary breast cancer; read-out: IC50, cytotoxic activity MCF-7; cited from earlier work.
The subject of data set [4] is MDA-MB-231 cancer cell line. Particulars: TNBC; read-out: IC50, cytotoxic activity MDA-MB-231; cited from earlier work.
The test system of the next data set is MDA cell lines. Further details: method as in ref 10 = [10]; 10 Jiang X , Sun Y , Yao J , et al Core scaffold‐inspired concise synthesis of chiral spirooxindole‐pyranopyrimidines with broad‐spectrum anticancer potency . Adv Synth Catal 2012; 354 : 917 – 25 . Particulars: read-out: IC50, cytotoxicity against MDA cell lines; cited from earlier work.

Take `N#CC1=C(c2ccccc2)Nc2c(c(-c3cccs3)nn2-c2ccccc2)C12C(=O)Nc1ccc(Cl)cc12` (centres unmarked) [Compound 6e, 5-Chloro-2-oxo-1',6'-diphenyl-3'-(thiophen-2-yl)-1',7'-dihydrospiro[indoline-3,4'-pyrazolo[3,4-b]pyridine]-5'-carbonitrile]: in the data set on caspase-3, the “Caspase-3” value is 0.4058 ng/mL and the “Caspase-3, number of folds of control” value is recorded as ~36.5 folds. Further, the IC50 against EGFR worked out at 0.15 ± 0.02 µM. Moreover, in the data set on MDA-MB-231 cells [1], the “Annexin V-FITC positive apoptotic cells, folds compared to control” value was “about 32.8 folds”. For the same compound, in the data set with MDA-MB-231 cells [1] (control 1.34%), the “Percent of annexin V-FITC positive apoptotic cells (UR + LR)” value is given as 44%. For the same compound, in the data set on Bax, the “Bax” value worked out at 353.7 pg/mL and the “Bax, number of folds of control” value is on record as 442.1 folds. In the data set with Bcl-2, the “Bcl-2” value was found to be 0.7449 ng/mL and the “Bcl-2, number of folds of control” value is given as 0.276 folds. In the data set with MDA-MB-231 cells [2], this compound gave an IC50 of 6.4 µM. Moreover, in the data set with WI-38 cells, the IC50 amounted to 43.2 µM. Further, in the data set with MDA-MB-231 cells [3], the “Cells in G2-M phase” value is 19.1% and the “Change in the S phase” value was “no significant change”.
`CC(C)=CC1N2C(=O)C3CCCN3C(=O)C2=CC12C(=O)Nc1ccccc12` (centres unmarked) [Spirotryprostatins B]: the IC50 in the data set on tsFT210 cells is 14 µM.
Take `CC(C)(C)C1=NN(c2ccccc2)C2(C(=O)Nc3c(Cl)cccc32)C1c1ccccc1` (centres unmarked) [compound (iii)]: the IC50 in the data set with MCF-7 is 8.6 µM; in [4], 6.4 µM.
For the compound `CC(=O)n1c(C)nc2c(c1=O)[C@@]1(C(=O)Nc3c(F)cccc31)c1c(c3cc(F)ccc3oc1=O)O2` [derivative (ii)], the IC50 in the data set with MDA cell lines was 6.9 µM.
